Literature values, collected in US20190156929A1, “METHODS OF IMPROVING PATIENT COMPLIANCE TO TREAT CONTRAST-INDUCED INJURY” (Saghmos Therapeutics, Inc., priority 2017, published 2019).

Test system: contrast-induced nephropathy in patients undergoing coronary angiography/angioplasty
Settings: four published Phase 2 trials; compared with isotonic saline; patients e.g. with high serum creatinine levels

## COc1ccc(CN2CCNCC2)c(OC)c1OC [Trimetazidine]
  reduction of the risk of contrast-induced nephropathy (CIN): more effective than isotonic saline in reducing the risk of contrast-induced nephropathy (CIN)
